Where two headings read alike, the source gives them in different places. Marks after values point to notes of the source that are not given here.
Assays:
mouse NASH model = experiment: Mouse NASH model test (HFD + fructose), combination with semaglutide; assay type: in vivo, mice
Experimental: Test Example 6 Mouse NASH Model Test
After the animals arrived and acclimatized for 1 week, they were randomly divided into 2 groups. 48 mice were fed a high-fat diet (HFD) and had free access to 15% fructose water (w/w). After the animals were fed for 20 weeks, they were fasted for 6 h, and fasting blood glucose (FBG) was monitored by a blood glucose meter. Orbital blood was taken from all animals, and serum was collected by centrifugation to detect serum ALT levels. Animals were randomly divided into 6 groups according to their body weight, FBG and ALT levels. After that, the high fat feed (HFD) was replaced with the modified high fat feed (mHFD), and the mice had free access to 15% fructose water (v/w). The 8 mice in the other group were fed normal diet and water.
The first end point of the experiment: After 8 weeks of administration, the end point body weight was recorded and the animals were fasted for 6 h, and fasting blood glucose was measured with a blood glucose meter. The mice were then euthanized by CO2 and serum was collected by orbital blood sampling and stored at −80° C. for insulin and biochemical analysis. The animal's liver was taken and the liver weight was recorded. The liver was divided into four parts, one part was quick-frozen in liquid nitrogen for biochemical analysis, one part was placed in tissue fixative for pathological analysis, one part was stored in RNAlater for qPCR detection (backup for later use), and one part was quick-frozen in liquid nitrogen for possible subsequent detection.
The second end point of the experiment: 3 mice were kept in each group for 6 weeks for further observation. The end point body weight was recorded and the mice were fasted for 6 h. Fasting blood glucose was tested with a blood glucose meter. The mice were then euthanized by CO2 and serum was collected by orbital blood sampling and stored at −80° C. for insulin and biochemical analysis. The animal's liver was taken and the liver weight was recorded. The liver was divided into four parts, one part was quick-frozen in liquid nitrogen for biochemical analysis, one part was placed in tissue fixative for pathological analysis, one part was stored in RNAlater for qPCR detection (backup for later use), and one part was quick-frozen in liquid nitrogen for subsequent detection.

SD rats = experiment: 14-day toxicity experiment on rats: safety observations; assay type: in vivo
Text: (§1) Test Example 7 14-Day Toxicity Experiment on Rats
(§2) SD rats were orally gavaged with compound 062 and the control compound once a day for a total of 14 times. The toxic reactions caused by compound 062 and the control compound were observed and their toxicokinetics were studied.
An appropriate amount of the test compound was weighed (weighed amount=theoretical required amount/content), and fully ground and dispersed in a mortar (agate or ceramic). Then, an appropriate amount of [5% Solutol HS15 in 95% (0.2% CMC-Na)] was added and the mixture was ground until there were no obvious large particles. Then the mortar was cleaned with [5% Solutol HS15 in 95% (0.2% CMC-Na)] in small amounts several times until there was no drug powder residue observed with the naked eye. The mixture was transferred to a suitable container, well stirred and mixed, and the remaining [5% Solutol HS15 in 95% (0.2% CMC-Na)] was further added to the required volume (streaking method). The system was stirred and mixed for at least 20 min, thereby giving the test sample formulation.
(§3) Oral gavage. The drug was stirred for at least 30 min prior to administration and continuously stirred throughout the administration. The dosing frequency was once a day for 14 consecutive days, and the dosing amount was 10 mL/kg (the dosing amount was calculated based on the most recent weight).
Dosing period: All surviving animals in the main test group were observed twice a day, once before and after dosing respectively, and observed in detail at least once a week.
Observation contents: The main observation contents include (but not limited to) survival status, injection site, skin, hair, eyes, ears, nose, mouth, chest, abdomen, urogenital area, limbs, as well as breathing, movement, urination, defecation, mental or behavioral changes, etc.
Dosing period: All surviving animals were weighed at least once a week. The body weight of animals in the toxicokinetics (TK) group was only used to calculate the dosage. The body weight data were not statistically analyzed and were only presented as individual data in the summary report.
Dosing period: The food intake of the surviving animals in the main test group was weighed at least once a week, and the average food intake was expressed in g/animal/day.
• End of dosing period: once; • Blood sampling route: abdominal aorta; • Animals: Plan to dissect surviving animals; • Blood was collected into tubes containing anticoagulant (EDTA-K2), and hematological indices were detected using a Sysmex XN-1000V fully automatic blood analyzer; blood was collected into anticoagulant tubes containing sodium citrate, and coagulation indices were detected using a Sysmex CS-5100 coagulometer. The specific detection indices are as follows:
• End of dosing period: once; • Blood sampling route: abdominal aorta; • Animals: Plan to dissect surviving animals; • The animals were fasted overnight, and whole blood was collected into a test tube containing a coagulant and a separation gel. Serum was obtained by centrifugation, and serum biochemical indices were detected using a Hitachi-7180 biochemical analyzer. The specific detection indices are as follows:
• Dissection time: end of dosing period (D15); • Anesthesia method: The specifications of the anesthetic mixture are ketamine of 37.5 mg/mL and xylazine of 2.5 mg/mL. The euthanasia dose is 2-4 mL/kg of the mixture (the anesthetic dose of the animal planned for dissection is calculated based on the body weight after fasting overnight, the concentration will be recorded in the original record and presented in the summary report, and the dose can be adjusted according to the anesthetic effect) by intraperitoneal injection. […]

[1] = 14-day toxicity experiment on rats: toxicokinetics; assay type: in vivo, SD rats; details: for Cmax / AUC(0-t): SD, rat, plasma, po; for AUC(0-t): read-out: AUC(0-24)
Experimental: as §1, §2, §3
Different time points before and after administration on D1 and D14.
Group 2 to Group 7: Before dosing and 0.5 h, 1 h, 2 h, 4 h, 8 h and 24 h after dosing (before dosing on D2 and/or D15).
Whole blood was collected into a blood collection tube containing EDTA-K2, the tube was immediately and gently inverted upside down several times to mix the system thoroughly, and placed on crushed ice/ice pack. Blood was centrifuged (2000 g, 10 min) at 4° C. (set temperature, allowable temperature range: 2 to 8° C.) within 1 h after blood collection. The collected plasma was divided into two portions into separate labeled EP tubes (one for testing and one for standby testing), and stored in an ultra-low temperature refrigerator (−70° C. to −90° C.) within 2 h after collection. The samples were stored in dry ice during transportation and transfer.
The drug concentration in plasma was analyzed by using LC-MS/MS, verified blood drug concentration data was provided, and the main toxicokinetic parameters (AUC0-t, Cmax and Tmax) were calculated and compared.

[2] = 30 mg/kg, 30 mpk oral, Day 1, plasma
[3] = 30 mg/kg, 30 mpk oral, Day 14, plasma
[4] = 60 mg/kg, 60 mpk oral, Day 1, plasma
[5] = 60 mg/kg, 60 mpk oral, Day 14, plasma
[6] = 100 mg/kg, 100 mpk oral, Day 1, plasma
[7] = 100 mg/kg, 100 mpk oral, Day 14, plasma

With `CC#Cc1ccc2c(-c3ccc(Cl)cc3O)nnc(NC[C@H](O)CO)c2c1` [Compound 062, (S)-3-((4-(4-chloro-2-hydroxyphenyl)-7-(prop-1-yn-1-yl)phthalazin-1-yl)amino) propan-1,2-diol] the “rebound of mouse body weight after drug withdrawal” value (mouse NASH model; combination with 0.025 mpk semaglutide, FIG. 5) was “significantly inhibited the rebound of mouse body weight after drug withdrawal”, the food intake (mouse NASH model; combination with 0.025 mpk semaglutide, FIG. 6) was “without affecting food intake” and the “levels of ALT, AST, LDL and HDL after drug withdrawal” value (mouse NASH model; serum, combination with 0.025 mpk semaglutide, FIG. 7) was “significantly inhibited the levels of ALT, AST, LDL and HDL after drug withdrawal”. The “safety (conclusion in words)” value (SD rats; 14-day rat study) was “good safety”, the Death/moribundity (SD rats; 30, 60, 100 mg/kg/day oral, 14 days) was “None” and the “safety compared with the control compound” value (SD rats; exposure in high-dose group 4.8 times that of control compound) was “much better than that of the control compound”. The “exposure in the high-dose group relative to the control compound” value ([1]; 100 mg/kg high-dose group) was 4.8 times, the Cmax [1, 2] was 19900 ng/mL and the AUC(0-t) [1, 2] was 279 µg·h/mL. It also gave a Cmax [1, 3] of 31700 ng/mL, an AUC(0-t) [1, 3] of 384 µg·h/mL and a Cmax [1, 4] of 41100 ng/mL. For the same compound, the AUC(0-t) [1, 4] was 622 µg·h/mL, the Cmax [1, 5] was 68600 ng/mL and the AUC(0-t) [1, 5] was 1120 µg·h/mL. It also gave a Cmax [1, 6] of 68200 ng/mL, an AUC(0-t) [1, 6] of 1120 µg·h/mL and a Cmax [1, 7] of 127000 ng/mL. For the same compound, the AUC(0-t) [1, 7] was 2120 µg·h/mL.
For `CC(C)(O)CNc1nnc(-c2ccc(Cl)cc2O)c2ccncc12` [Control compound], the “rebound of body weight after drug withdrawal” value (mouse NASH model; control compound combined with semaglutide) was “neither the control compound combined with semaglutide nor the groups of low/high dose semaglutide alone inhibited the rebound of body weight”, the “animals with swelling of the left and right hind limbs and ears, females” value (SD rats; 30 mg/kg) was 2/5 and the “animals with swelling of the left and right hind limbs and ears, males” value (SD rats; 30 mg/kg) was 4/5. The “Gross anatomy, animals with unplanned autopsy (dead animals)” value (SD rats; 100 mg/kg) was “showed discoloration of the lungs and/or liver”, the “weight loss before death vs before dosing, animal 4006#” value (SD rats; 100 mg/kg, male, TK group, found dead D 6) was “weight loss (vs before dosing: ↓28.4%)” and the “body weight decrease before death vs before dosing, animal 4101#” value (SD rats; 100 mg/kg, male, found dead D 4) was “↓6.25%); before death, animal 4006# showed”. For the same compound, the “body weight reduction vs. control group” value (SD rats; D 7, high (100 mg/kg)) was 22.5%, the “body weight reduction vs. control group” value (SD rats; D 7, low (30 mg/kg)) was 7.7% and the “body weight reduction vs. control group” value (SD rats; D 7, medium (60 mg/kg)) was 16.7%. The “body weight reduction vs. control group” value (SD rats; D 14, high (100 mg/kg)) was 23.3%, the “body weight reduction vs. control group” value (SD rats; D 14, low (30 mg/kg)) was 8.5% and the “body weight reduction vs. control group” value (SD rats; D 14, medium (60 mg/kg)) was 14.6%. The “#NEU increase” value (SD rats; females, high (100 mg/kg)) was 687.1%, the MONO % increase (SD rats; females, high (100 mg/kg)) was 290.3% and the “#MONO increase” value (SD rats; females, low (30 mg/kg)) was 187.7%. The MONO % increase (SD rats; females, low (30 mg/kg)) was 63.6%, the “#MONO increase” value (SD rats; females, medium (60 mg/kg)) was 237.0% and the “#NEU increase” value (SD rats; females, medium (60 mg/kg)) was 251.8%. The MONO % increase (SD rats; females, medium (60 mg/kg)) was 100.6%, the “ALB reduction vs. control group” value (SD rats; females, ≥100 mg/kg) was “females: at dose ≥100 mg/kg, ALB (↓28.5%)” and the “GLO increase vs. control group” value (SD rats; females, ≥100 mg/kg) was “GLO (: ↑ 61.3%) was significantly increased”. The “#MONO increase vs. control group” value (SD rats; males, high (100 mg/kg)) was 313.0%, the “#MONO increase vs. control group” value (SD rats; males, low (30 mg/kg)) was “#MONO increased (low: ↑ 154.4%,” and the “#MONO increase vs. control group” value (SD rats; males, medium (60 mg/kg)) was 215.8%. For the same compound, the “#EOS increase vs. control group” value (SD rats; males, ≥100 mg/kg) was 816.7%, the “MONO % increase vs. control group” value (SD rats; males, ≥100 mg/kg) was 160.3% and the “body weight gain vs. control group” value (SD rats; ≥30 mg/kg, males and females) was “low body weight gain”. It also gave a Cmax [1, 2] of 17500 ng/mL, an AUC(0-t) [1, 2] of 248 µg·h/mL and a Cmax [1, 3] of 13200 ng/mL. For the same compound, the AUC(0-t) [1, 3] was 202 µg·h/mL, the Cmax [1, 4] was 21400 ng/mL and the AUC(0-t) [1, 4] was 360 µg·h/mL. The Cmax [1, 5] was 22400 ng/mL, the AUC(0-t) [1, 5] was 324 µg·h/mL and the Cmax [1, 6] was 24000 ng/mL. For the same compound, the AUC(0-t) [1, 6] was 405 µg·h/mL, the Cmax [1, 7] was 26700 ng/mL and the AUC(0-t) [1, 7] was 439 µg·h/mL.

Reference: patent publication US20260216182A1, “PYRIDAZINE NLRP3 INHIBITOR COMPOUND, PHARMACEUTICAL COMPOSITION, AND PREPARATION METHOD THEREFOR AND USE THEREOF” (CHANGCHUN GENESCIENCE PHARMACEUTICAL CO., LTD., priority 2022, published 2026)
